In ChEMBL document CHEMBL1201862, “PubChem BioAssay data set” (2004):
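Interpolation was linear, between the two tested concentrations surrounding the appropriate level; five concentrations were tested over 48 hours in 96-well plates. GI50 marks 50% less growth.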 The source made the active and inactive calls. Rule as the data show it: active = GI50 up to about 1.1 µM and inactive = higher.

Key:
Assay in all cases: growth of human tumour cells (NCI), 48 h
DLD-1 = test system: DLD-1
786-0 = test system: 786-0
M14 = test system: M14
ACHN = test system: ACHN
UO-31 = test system: UO-31
SF-539 = test system: SF-539
Malme-3M = test system: Malme-3M
SW-620 = test system: SW-620
SR = test system: SR
HCC 2998 = test system: HCC 2998
SNB-19 = test system: SNB-19
A498 = test system: A498
CCRF-CEM = test system: CCRF-CEM
NCI-H23 = test system: NCI-H23
UACC-62 = test system: UACC-62
OVCAR-4 = test system: OVCAR-4
IGROV-1 = test system: IGROV-1
CAKI-1 = test system: CAKI-1
OVCAR-3 = test system: OVCAR-3
UACC-257 = test system: UACC-257
DMS-273 = test system: DMS-273
A549 = test system: A549
HCT-15 = test system: HCT-15
XF498 = test system: XF498
OVCAR-8 = test system: OVCAR-8
SNB-75 = test system: SNB-75
DMS-114 = test system: DMS-114
SK-MEL-5 = test system: SK-MEL-5
HOP-92 = test system: HOP-92
RXF 393 = test system: RXF 393
LXFL 529 = test system: LXFL 529
SK-MEL-28 = test system: SK-MEL-28
OVCAR-5 = test system: OVCAR-5
SF-268 = test system: SF-268
HOP-18 = test system: HOP-18
HT-29 = test system: HT-29
K562 = test system: K562
KM12 = test system: KM12
RPMI-8226 = test system: RPMI-8226
SK-MEL-2 = test system: SK-MEL-2
MOLT-4 = test system: MOLT-4
EKVX = test system: EKVX
LOX IMVI = test system: LOX IMVI
HL-60 = test system: HL-60
HCT-116 = test system: HCT-116
KM-20L2 = test system: KM-20L2
SN12C = test system: SN12C
HOP-62 = test system: HOP-62
NCI-H226 = test system: NCI-H226
SF-295 = test system: SF-295
SNB-78 = test system: SNB-78
NCI-H460 = test system: NCI-H460
M19-MEL = test system: M19-MEL
TK-10 = test system: TK-10

CC(=O)N(C)c1ccc2ncccc2c1[N+](=O)[O-]
GI50 (DLD-1): > 100 µM (inactive)
GI50 (786-0): > 100 µM (inactive)
GI50 (M14): > 100 µM (inactive)
GI50 (ACHN): > 100 µM (inactive)
GI50 (UO-31): > 100 µM (inactive)
GI50 (SF-539): > 100 µM (inactive)
GI50 (Malme-3M): > 100 µM (inactive)
GI50 (SW-620): > 100 µM (inactive)
GI50 (SR): > 100 µM (inactive)
GI50 (HCC 2998): > 100 µM (inactive)
GI50 (SNB-19): > 100 µM (inactive)
GI50 (A498): > 100 µM (inactive)
GI50 (CCRF-CEM): > 100 µM (inactive)
GI50 (NCI-H23): > 100 µM (inactive)
GI50 (UACC-62): > 100 µM (inactive)
GI50 (OVCAR-4): > 100 µM (inactive)
GI50 (IGROV-1): > 100 µM (inactive)
GI50 (CAKI-1): > 100 µM (inactive)
GI50 (OVCAR-3): > 100 µM (inactive)
GI50 (UACC-257): > 100 µM (inactive)
GI50 (DMS-273): > 100 µM (inactive)
GI50 (A549): > 100 µM (inactive)
GI50 (HCT-15): > 100 µM
GI50 (XF498): > 100 µM (inactive)
GI50 (OVCAR-8): > 100 µM (inactive)
GI50 (SNB-75): > 100 µM (inactive)
GI50 (DMS-114): > 100 µM (inactive)
GI50 (SK-MEL-5): > 100 µM (inactive)
GI50 (HOP-92): > 100 µM (inactive)
GI50 (RXF 393): > 100 µM (inactive)
GI50 (LXFL 529): > 100 µM (inactive)
GI50 (SK-MEL-28): > 100 µM (inactive)
GI50 (OVCAR-5): > 100 µM (inactive)
GI50 (SF-268): > 100 µM (inactive)
GI50 (HOP-18): > 100 µM (inactive)
GI50 (HT-29): > 100 µM (inactive)
GI50 (K562): > 100 µM (inactive)
GI50 (KM12): > 100 µM (inactive)
GI50 (RPMI-8226): > 100 µM (inactive)
GI50 (SK-MEL-2): > 100 µM (inactive)
GI50 (MOLT-4): > 100 µM (inactive)
GI50 (EKVX): > 100 µM (inactive)
GI50 (LOX IMVI): > 100 µM (inactive)
GI50 (HL-60): > 100 µM (inactive)
GI50 (HCT-116): > 100 µM (inactive)
GI50 (KM-20L2): > 100 µM (inactive)
GI50 (SN12C): > 100 µM (inactive)
GI50 (HOP-62): > 100 µM (inactive)
GI50 (NCI-H226): > 100 µM (inactive)
GI50 (SF-295): > 100 µM (inactive)
GI50 (SNB-78): > 100 µM (inactive)
GI50 (NCI-H460): > 100 µM (inactive)
GI50 (M19-MEL): > 100 µM (inactive)
GI50 (TK-10): > 100 µM (inactive)
